These results are taken from PMC4412093, “Identification of a Novel Series of Potent TrkA Receptor Tyrosine Kinase Inhibitors” (International Journal of Medicinal Chemistry, 2012).

The subject of series [1] is TrkA. Further details: method as in PMID 18646745, PMID 19509272. The note with it: read-out: TrkA EC50 (reported); cited from earlier work.
In series [2] the test system is TrkA. The note with it: read-out: TrkA IC50 (reported); cited from earlier work.
The target in series [3] is T1, c-Met (Homo sapiens, UniProt P08581). Put plainly: c-Met kinase enzyme inhibition. The format is biochemical. The note with it: average of ≥3 experiments. An excerpt:
(§1) Table 1 2-Oxo-3-phenylimidazolidine-1-carboxamide kinase inhibitors based on different scaffolds.

The next series concerns the target VEGFR2 (Homo sapiens, UniProt P35968). In words: VEGFR2 kinase enzyme inhibition. The format is biochemical. The settings on record: average of ≥3 experiments.
Description: as §1

For a further series, the target named is TrkA human enzyme (Homo sapiens, UniProt P04629). Put plainly: TrkA kinase enzyme inhibition. The settings on record: for inhibition at 0.1 µM / inhibition at 0.03 µM: average of ≥3 experiments; for inhibition at 0.1 µM: read-out: TrkA % inh. at 0.1 μM; for inhibition at 0.03 µM: 30 nM, read-out: TrkA % inh. at 30 nM; for IC50: average of ≥2 experiments. The format is biochemical.
Sequence of TrkA human enzyme (P04629 33-796): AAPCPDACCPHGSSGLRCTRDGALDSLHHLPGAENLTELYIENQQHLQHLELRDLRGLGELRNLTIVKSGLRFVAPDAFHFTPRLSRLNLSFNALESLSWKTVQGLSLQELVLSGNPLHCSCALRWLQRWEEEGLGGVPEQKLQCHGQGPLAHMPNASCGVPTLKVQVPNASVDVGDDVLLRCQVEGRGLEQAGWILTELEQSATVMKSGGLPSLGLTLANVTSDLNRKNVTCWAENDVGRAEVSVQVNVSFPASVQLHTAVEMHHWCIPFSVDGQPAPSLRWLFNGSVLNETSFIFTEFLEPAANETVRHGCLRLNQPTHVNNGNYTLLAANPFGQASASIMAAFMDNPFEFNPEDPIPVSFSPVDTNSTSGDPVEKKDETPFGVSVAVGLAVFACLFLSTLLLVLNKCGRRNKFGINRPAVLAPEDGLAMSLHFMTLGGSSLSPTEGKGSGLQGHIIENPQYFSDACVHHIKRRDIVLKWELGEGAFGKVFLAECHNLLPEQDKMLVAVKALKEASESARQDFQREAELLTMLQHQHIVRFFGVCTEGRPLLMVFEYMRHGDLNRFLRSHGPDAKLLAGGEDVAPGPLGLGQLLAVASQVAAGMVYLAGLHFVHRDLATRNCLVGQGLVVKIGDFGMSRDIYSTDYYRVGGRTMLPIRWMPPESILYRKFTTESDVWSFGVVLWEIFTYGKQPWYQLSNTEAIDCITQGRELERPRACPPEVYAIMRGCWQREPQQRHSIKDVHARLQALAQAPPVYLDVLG

A further series concerns the target T2, Haspin (Homo sapiens, UniProt Q8TF76).
T2 construct: purchased Millipore (Kinaseprofiler assay service)
Put plainly: Millipore Kinaseprofiler, Haspin. The format is biochemical. The note with it: tested at 100 nM. On the procedure:
(§2) Compound 5 was profiled and tested at 100 nM against 24 other kinase enzymes using Millipore's Kinaseprofiler assay services.

The next series concerns the target TrkB (Homo sapiens, UniProt Q16620). Put plainly: TrkB kinase inhibition. The format is biochemical. The note with it: tested at 10 nM. How it is done:
as §2

For the next series, the target named is T3, PDK1 (Homo sapiens, UniProt O15530).
T3 construct: purchased Millipore (Kinaseprofiler assay service)
Put plainly: Millipore Kinaseprofiler, PDK1. The note with it: tested at 100 nM. The format is biochemical. On the procedure: as §2

Another series has as its target T4, Flt3 (Homo sapiens, UniProt P36888).
T4 construct: purchased Millipore (Kinaseprofiler assay service)
Put plainly: Millipore Kinaseprofiler, Flt3. The format is biochemical. The settings on record: tested at 100 nM. On the procedure: as §2

Series [4] addresses T1, c-Met. In words: Millipore Kinaseprofiler, c-Met. The format is biochemical. Further details: purchased Millipore (Kinaseprofiler assay service). The settings on record: tested at 100 nM. How it is done:
as §2

The target in another series is T5, Tie2 (Homo sapiens, UniProt Q02763).
T5 construct: purchased Millipore (Kinaseprofiler assay services)
Put plainly: Millipore Kinaseprofiler, Tie2. The format is biochemical. The note with it: tested at 100 nM. How it is done: as §2

A short description of series [5]: Rat pharmacokinetic profile. The format is in vivo. An excerpt:
Compound 5 was further evaluated for its pharmacokinetic properties in the rat (Table 5).

The next series deals with T6, ALK (Homo sapiens, UniProt Q9UM73).
T6 construct: purchased Millipore (Kinaseprofiler assay service)
Put plainly: Millipore Kinaseprofiler, ALK. The settings on record: tested at 100 nM. The format is biochemical. On the procedure: as §2

In a further series the target is T7, c-Raf (Homo sapiens, UniProt P04049).
T7 construct: purchased Millipore (Kinaseprofiler assay service)
Put plainly: Millipore Kinaseprofiler, c-Raf. The format is biochemical. The settings on record: tested at 100 nM. How it is done:
as §2

The target of the next series is T8, GSK3β (Homo sapiens, UniProt P49841).
T8 construct: purchased Millipore (Kinaseprofiler assay service)
T8 sequence (P49841 whole entry): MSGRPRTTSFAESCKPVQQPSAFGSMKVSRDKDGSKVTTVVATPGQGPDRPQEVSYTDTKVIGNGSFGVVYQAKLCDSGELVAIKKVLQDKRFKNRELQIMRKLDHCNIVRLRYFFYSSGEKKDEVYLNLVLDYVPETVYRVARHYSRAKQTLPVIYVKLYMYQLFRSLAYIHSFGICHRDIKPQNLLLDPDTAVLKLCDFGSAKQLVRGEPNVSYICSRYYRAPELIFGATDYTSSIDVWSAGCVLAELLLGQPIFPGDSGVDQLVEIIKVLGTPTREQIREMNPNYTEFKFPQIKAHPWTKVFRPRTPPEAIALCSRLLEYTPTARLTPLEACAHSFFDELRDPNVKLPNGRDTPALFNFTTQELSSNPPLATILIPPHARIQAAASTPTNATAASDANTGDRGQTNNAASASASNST
Put plainly: Millipore Kinaseprofiler, GSK3β. The format is biochemical. The settings on record: tested at 100 nM. How it is done:
as §2

Another series has as its target T9, JAK2 (Homo sapiens, UniProt O60674).
T9 construct: purchased Millipore (Kinaseprofiler assay service)
Put plainly: Millipore Kinaseprofiler, JAK2. The format is biochemical. The note with it: tested at 100 nM. How it is done:
as §2

The target in the next series is T10, MEK1 (Homo sapiens, UniProt Q02750).
T10 construct: purchased Millipore (Kinaseprofiler assay service)
In words: Millipore Kinaseprofiler, MEK1. The format is biochemical. The note with it: tested at 100 nM. How it is done: as §2

In another series the target is T11, Bmx (Homo sapiens, UniProt P51813).
T11 construct: purchased Millipore (Kinaseprofiler assay service)
In words: Millipore Kinaseprofiler, Bmx. The format is biochemical. The settings on record: tested at 100 nM. How it is done: as §2

The target of a further series is T12, EphB4 (Homo sapiens, UniProt P54760).
T12 construct: purchased Millipore (Kinaseprofiler assay service)
In words: Millipore Kinaseprofiler, EphB4. The format is biochemical. The settings on record: tested at 100 nM. How it is done: as §2

The target of a further series is T13, CHK1 (Homo sapiens, UniProt O14757).
T13 construct: purchased Millipore (Kinaseprofiler assay service)
In words: Millipore Kinaseprofiler, CHK1. The note with it: tested at 100 nM. The format is biochemical. How it is done:
as §2

For a further series, the target named is T14, FAK (Homo sapiens, UniProt Q05397).
T14 construct: purchased Millipore (Kinaseprofiler assay service)
Put plainly: Millipore Kinaseprofiler, FAK. The format is biochemical. The note with it: tested at 100 nM. How it is done:
as §2

Another series has as its target T15, JAK3 (Homo sapiens, UniProt P52333).
T15 construct: purchased Millipore (Kinaseprofiler assay service)
In words: Millipore Kinaseprofiler, JAK3. The format is biochemical. The note with it: tested at 100 nM. On the procedure:
as §2

The target in a further series is T16, cKit (Homo sapiens, UniProt P10721).
T16 construct: purchased Millipore (Kinaseprofiler assay service)
In words: Millipore Kinaseprofiler, cKit. The format is biochemical. The settings on record: tested at 100 nM. On the procedure: as §2

A further series deals with T17, Ret (Homo sapiens, UniProt P07949).
T17 construct: purchased Millipore (Kinaseprofiler assay service)
In words: Millipore Kinaseprofiler, Ret. The format is biochemical. The settings on record: tested at 100 nM. How it is done:
as §2

The next series deals with T18, Ron (Homo sapiens, UniProt Q04912).
T18 construct: purchased Millipore (Kinaseprofiler assay service)
In words: Millipore Kinaseprofiler, Ron. The settings on record: tested at 100 nM. The format is biochemical. On the procedure: as §2

The target in another series is T19, LIMK1 (Homo sapiens, UniProt P53667).
T19 construct: purchased Millipore (Kinaseprofiler assay service)
In words: Millipore Kinaseprofiler, LIMK1. The note with it: tested at 100 nM. The format is biochemical. On the procedure: as §2

A further series has as its target T20, PI3-Kinaseβ (Homo sapiens, UniProt P42338).
T20 construct: purchased Millipore (Kinaseprofiler assay service)
Put plainly: Millipore Kinaseprofiler, PI3-Kinaseβ. The format is biochemical. The note with it: tested at 100 nM. On the procedure: as §2

The target in the next series is T21, IKKβ (Homo sapiens, UniProt O14920).
T21 construct: purchased Millipore (Kinaseprofiler assay service)
T21 sequence (O14920 whole entry): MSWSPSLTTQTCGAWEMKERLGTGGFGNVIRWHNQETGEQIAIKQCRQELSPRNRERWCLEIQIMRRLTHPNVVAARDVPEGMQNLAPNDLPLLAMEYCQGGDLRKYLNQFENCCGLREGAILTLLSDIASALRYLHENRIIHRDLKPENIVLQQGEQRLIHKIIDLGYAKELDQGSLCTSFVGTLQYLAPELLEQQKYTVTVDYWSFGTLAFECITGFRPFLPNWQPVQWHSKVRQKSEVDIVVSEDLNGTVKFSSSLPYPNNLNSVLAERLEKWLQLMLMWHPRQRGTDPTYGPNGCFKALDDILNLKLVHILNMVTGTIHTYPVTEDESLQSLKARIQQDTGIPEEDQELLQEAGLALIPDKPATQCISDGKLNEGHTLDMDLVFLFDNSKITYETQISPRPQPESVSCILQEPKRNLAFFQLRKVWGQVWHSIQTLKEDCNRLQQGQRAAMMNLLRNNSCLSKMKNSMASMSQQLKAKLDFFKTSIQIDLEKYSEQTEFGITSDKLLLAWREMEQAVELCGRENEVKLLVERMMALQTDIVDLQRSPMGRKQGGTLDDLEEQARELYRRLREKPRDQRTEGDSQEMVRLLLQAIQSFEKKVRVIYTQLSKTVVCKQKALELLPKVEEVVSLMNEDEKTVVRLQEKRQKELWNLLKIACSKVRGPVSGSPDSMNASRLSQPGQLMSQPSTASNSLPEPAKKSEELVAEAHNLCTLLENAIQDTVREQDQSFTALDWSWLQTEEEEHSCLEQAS
Put plainly: Millipore Kinaseprofiler, IKKβ. The format is biochemical. The settings on record: tested at 100 nM. On the procedure:
as §2

In another series the target is T22, PKBα (Homo sapiens, UniProt P31749).
T22 construct: purchased Millipore (Kinaseprofiler assay service)
In words: Millipore Kinaseprofiler, PKBα. The format is biochemical. The settings on record: tested at 100 nM. How it is done: as §2

The target of a further series is T23, Pim-1 (Homo sapiens, UniProt P11309).
T23 construct: purchased Millipore (Kinaseprofiler assay service)
T23 sequence (P11309 whole entry): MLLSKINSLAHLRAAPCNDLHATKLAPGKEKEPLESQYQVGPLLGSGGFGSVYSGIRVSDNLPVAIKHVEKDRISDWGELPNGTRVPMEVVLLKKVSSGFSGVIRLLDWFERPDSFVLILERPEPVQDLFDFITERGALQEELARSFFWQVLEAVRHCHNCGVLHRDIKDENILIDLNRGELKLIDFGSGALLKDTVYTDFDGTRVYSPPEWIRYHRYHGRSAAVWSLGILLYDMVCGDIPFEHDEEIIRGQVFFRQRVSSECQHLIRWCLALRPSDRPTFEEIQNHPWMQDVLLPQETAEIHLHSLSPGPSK
Put plainly: Millipore Kinaseprofiler, Pim-1. The settings on record: tested at 100 nM. The format is biochemical. On the procedure: as §2

The mark [6] stands for this setting: p.o. dose 5.25 mg/kg, dose-normalised.

Sequence of VEGFR2 (P35968 20-1356, species assumed): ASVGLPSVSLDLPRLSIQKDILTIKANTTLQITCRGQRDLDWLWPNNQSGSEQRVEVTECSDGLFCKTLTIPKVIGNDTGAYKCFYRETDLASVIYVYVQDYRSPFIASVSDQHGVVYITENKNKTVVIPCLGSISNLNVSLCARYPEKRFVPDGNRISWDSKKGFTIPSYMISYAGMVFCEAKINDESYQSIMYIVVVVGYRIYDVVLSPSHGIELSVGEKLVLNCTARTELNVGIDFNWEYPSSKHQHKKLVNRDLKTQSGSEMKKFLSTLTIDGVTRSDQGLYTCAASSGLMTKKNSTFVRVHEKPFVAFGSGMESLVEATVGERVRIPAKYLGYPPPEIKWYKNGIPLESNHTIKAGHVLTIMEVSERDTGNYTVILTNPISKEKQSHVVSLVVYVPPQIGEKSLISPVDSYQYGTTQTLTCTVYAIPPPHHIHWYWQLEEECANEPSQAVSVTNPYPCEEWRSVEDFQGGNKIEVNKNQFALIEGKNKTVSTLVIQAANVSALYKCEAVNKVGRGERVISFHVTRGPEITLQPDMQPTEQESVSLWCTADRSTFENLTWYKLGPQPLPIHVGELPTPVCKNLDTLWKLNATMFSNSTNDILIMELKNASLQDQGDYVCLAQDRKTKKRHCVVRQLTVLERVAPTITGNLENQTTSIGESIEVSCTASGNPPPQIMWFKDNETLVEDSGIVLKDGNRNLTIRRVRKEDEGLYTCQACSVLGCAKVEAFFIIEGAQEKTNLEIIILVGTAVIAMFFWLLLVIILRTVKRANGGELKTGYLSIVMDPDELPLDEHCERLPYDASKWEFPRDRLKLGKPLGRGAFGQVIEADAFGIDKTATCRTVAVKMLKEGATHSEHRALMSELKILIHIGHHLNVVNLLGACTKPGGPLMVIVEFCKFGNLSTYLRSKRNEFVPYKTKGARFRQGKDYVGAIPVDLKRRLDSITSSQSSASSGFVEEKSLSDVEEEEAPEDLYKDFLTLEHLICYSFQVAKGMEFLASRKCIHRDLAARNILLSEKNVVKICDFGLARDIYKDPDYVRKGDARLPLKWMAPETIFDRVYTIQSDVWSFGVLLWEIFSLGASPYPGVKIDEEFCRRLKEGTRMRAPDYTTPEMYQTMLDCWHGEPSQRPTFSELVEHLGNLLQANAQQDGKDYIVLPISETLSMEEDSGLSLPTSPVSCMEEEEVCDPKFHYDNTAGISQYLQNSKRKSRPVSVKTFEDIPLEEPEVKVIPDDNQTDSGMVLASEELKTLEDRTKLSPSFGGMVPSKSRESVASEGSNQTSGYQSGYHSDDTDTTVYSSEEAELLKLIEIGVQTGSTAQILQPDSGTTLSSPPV
T1 sequence (P08581 25-1390): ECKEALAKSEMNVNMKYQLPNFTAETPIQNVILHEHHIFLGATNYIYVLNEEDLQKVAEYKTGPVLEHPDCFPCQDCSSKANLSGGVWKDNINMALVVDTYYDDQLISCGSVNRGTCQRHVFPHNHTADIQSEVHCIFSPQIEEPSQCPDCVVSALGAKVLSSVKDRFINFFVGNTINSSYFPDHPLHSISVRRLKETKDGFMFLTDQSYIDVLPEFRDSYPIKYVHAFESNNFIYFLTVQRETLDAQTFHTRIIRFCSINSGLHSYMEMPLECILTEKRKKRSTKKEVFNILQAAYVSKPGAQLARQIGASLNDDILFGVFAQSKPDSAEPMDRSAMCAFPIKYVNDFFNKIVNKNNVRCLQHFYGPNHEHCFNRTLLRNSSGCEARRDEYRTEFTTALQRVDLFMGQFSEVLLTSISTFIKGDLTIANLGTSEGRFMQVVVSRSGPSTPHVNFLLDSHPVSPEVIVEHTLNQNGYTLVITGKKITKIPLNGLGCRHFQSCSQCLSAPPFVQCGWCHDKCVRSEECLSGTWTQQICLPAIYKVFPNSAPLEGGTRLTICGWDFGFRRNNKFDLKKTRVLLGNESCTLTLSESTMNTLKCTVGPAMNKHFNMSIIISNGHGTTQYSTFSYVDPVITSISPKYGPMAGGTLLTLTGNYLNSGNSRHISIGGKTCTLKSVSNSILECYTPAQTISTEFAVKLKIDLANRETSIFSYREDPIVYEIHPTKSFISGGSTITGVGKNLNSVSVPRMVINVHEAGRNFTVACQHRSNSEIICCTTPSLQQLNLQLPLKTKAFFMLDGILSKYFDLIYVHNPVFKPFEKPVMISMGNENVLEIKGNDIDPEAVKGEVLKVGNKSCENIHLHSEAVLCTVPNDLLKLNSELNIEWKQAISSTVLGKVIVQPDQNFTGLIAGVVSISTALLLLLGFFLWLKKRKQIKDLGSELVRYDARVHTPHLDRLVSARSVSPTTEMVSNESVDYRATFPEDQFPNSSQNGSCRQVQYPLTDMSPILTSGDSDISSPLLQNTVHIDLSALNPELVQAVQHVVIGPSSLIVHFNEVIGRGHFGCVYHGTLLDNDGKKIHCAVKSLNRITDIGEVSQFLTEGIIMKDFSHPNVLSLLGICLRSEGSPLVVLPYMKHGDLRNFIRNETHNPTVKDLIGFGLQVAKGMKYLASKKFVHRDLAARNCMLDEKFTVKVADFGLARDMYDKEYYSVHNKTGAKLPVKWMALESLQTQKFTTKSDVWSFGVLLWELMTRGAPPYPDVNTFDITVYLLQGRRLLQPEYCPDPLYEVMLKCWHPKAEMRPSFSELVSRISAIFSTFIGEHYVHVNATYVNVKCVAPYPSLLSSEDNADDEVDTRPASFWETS

Take `CC(C)Oc1cc(Nc2nc(N[C@@H](C)c3ccc(F)cc3)ncc2Cl)n[nH]1` [AZ-23]: in the series with TrkA [1], the EC50 is 0.001 µM. For the same molecule, in the series with TrkA [2], the concentration for half-maximal inhibition (IC50) is less than 0.003 µM.
Consider `C[C@]12O[C@H](C[C@]1(O)CO)n1c3ccccc3c3c4c(c5c6ccccc6n2c5c31)CNC4=O` [CEP-701, lestaurtinib], for which, in the series with TrkA [2], the IC50 was […].
Turning to `NC(=O)Nc1snc(S[C@@H]2CCCCc3ccccc32)c1C(N)=O` [Compound 5n], in the series with TrkA [2], the 50% inhibitory concentration (IC50) was less than 0.001 µM.
Turning to `CCNC(=O)OC(C)C1c2ccccc2-c2c3c(c4c([nH]c5ccccc54)c21)CNC3=O` (stereo not shown) [Compound 12a], the IC50 in the series on TrkA [2] was 0.008 µM.
As to `Cc1ccc(Sc2cnc(Nc3cccc(Br)n3)s2)cc1C(=O)N1CCN(C(=O)CN)CC1` [Compound 20h], the IC50 in the series on TrkA [2] is 0.0006 µM.
As for `CCn1cnc(-c2cc3nccc(Oc4ccc(NC(=O)N5CCN(c6ccccc6)C5=O)cc4F)c3s2)c1` [Cpd 1], the IC50 against c-Met [3] was 0.02 µM; at VEGFR2, 0.01 µM. Further, the inhibition at 0.1 µM at TrkA human enzyme was 82%.
Take `COc1cc2nccc(Oc3ccc(NC(=O)N4CCN(c5ccccc5)C4=O)cc3F)c2cc1OC` [Cpd 2]: the IC50 on c-Met [3] was 0.03 µM; against VEGFR2, 0.01 µM. Besides, the inhibition at 0.1 µM at TrkA human enzyme was 94%.
`O=C(Nc1cc(Oc2ccc(NC(=O)N3CCN(c4ccccc4)C3=O)cc2F)ncn1)N1CCCC1` [Cpd 3]: the half-maximal inhibitory concentration (IC50) at c-Met [3] turned out to be 0.05 µM; against VEGFR2, 0.15 µM. Also, the inhibition at 0.1 µM on TrkA human enzyme amounted to 16%.
The corresponding values for `O=C(Nc1cc(Oc2ccc(NC(=O)N3CCN(c4ccccc4)C3=O)cc2F)ccn1)N1CCCC1` [Cpd 4] are 0.03 µM, 0.23 µM and 49%.
`CC(=O)Nc1ccc(Oc2cccc(NC(=O)N3CCN(c4ccccc4)C3=O)c2)cn1` [Cpd 5]: the inhibition at 0.1 µM is less than 40% at Haspin; less than 40% on PDK1; 83% on Flt3; less than 40% at c-Met [4]; less than 40% on Tie2; less than 40% on ALK. In addition, the inhibition at 0.1 µM at c-Raf, on GSK3β, against JAK2, on MEK1, on Bmx and against EphB4 was less than 40% each time. In addition, the inhibition at 0.1 µM against CHK1, against FAK, on JAK3, against cKit, against Ret and on Ron was less than 40% in each case. Moreover, the inhibition at 0.1 µM against LIMK1 was less than 40%; at PI3-Kinaseβ it was less than 40%; against IKKβ, less than 40%; at PKBα, less than 40%; at TrkA human enzyme it was 98%; against Pim-1, less than 40%. This molecule registered an inhibition at 0.01 µM at TrkB of 40%. The clearance in [5] (in vivo, iv, i.v. dose 2.58 mg/kg, read-out: Cl i.v. (converted)) was 55 mL/min/kg. In [5] (in vivo, iv, i.v. dose 2.58 mg/kg, read-out: T1/2, i.v. (converted)), the half-life was 1.5 h. Moreover, the Vd in [5] (in vivo, iv, i.v. dose 2.58 mg/kg, read-out: Vss i.v.) was found to be 3.7 L/kg. The same molecule yielded a bioavailability in [5] (in vivo, oral, i.v. 2.58 mg/kg, p.o. 5.25 mg/kg) of 99%. For the same molecule, the time to peak (Tmax) in [5] (in vivo, po, p.o. dose 5.25 mg/kg) came out at 4 h. Besides, in series [5] (setting [6]), the “N. AUC, p.o.” value is reported as 0.83 μM.h/(mg/kg). In addition, the “N. C max, p.o.” value in [5] (setting [6]) is 0.08 μM/(mg/kg). Moreover, the half-inhibitory concentration (IC50) came to 0.31 µM on c-Met [3], 2.5 µM against VEGFR2 and 0.004 µM at TrkA human enzyme. Also, at TrkA human enzyme, the inhibition at 0.03 µM came out at 96%.
`CC(=O)Nc1ccc(NC(=O)Nc2cccc(NC(=O)N3CCN(c4ccccc4)C3=O)c2)cn1` [Cpd 6]: on TrkA human enzyme, the inhibition at 0.03 µM stood at 5%.
Same read-out and setting: the figure for `CC(=O)Nc1ccc(C#Cc2cccc(NC(=O)N3CCN(c4ccccc4)C3=O)c2)cn1` [Cpd 7] is 16%; for `CC(=O)Nc1ccc(Oc2cc(NC(=O)N3CCN(c4ccccc4)C3=O)ccc2C)cn1` [Cpd 10] it is 6%.
Same read-out and setting: the figure for `COc1ccc(NC(=O)N2CCN(c3ccccc3)C2=O)cc1Oc1ccc(NC(C)=O)nc1` [Cpd 11] is 15%.
The same measure, in the same setting: the figure for `CC(=O)Nc1ccc(Oc2ccc(Cl)c(NC(=O)N3CCN(c4ccccc4)C3=O)c2)cn1` [Cpd 12] is 0%.
The molecule `Nc1ccc(Oc2cccc(NC(=O)N3CCN(c4ccccc4)C3=O)c2)cn1` [Cpd 13] came in with a half-maximal inhibitory concentration (IC50) on TrkA human enzyme of 0.02 µM.
The same measure, in the same setting: the figure for `CC(=O)Nc1ccc(Oc2cccc(NC(=O)N3CCN(c4ccc(F)cc4)C3=O)c2)cn1` [Cpd 14] is 0.003 µM; for `CNC(=O)Nc1ccc(Oc2cccc(NC(=O)N3CCN(c4ccccc4)C3=O)c2)cn1` [Cpd 15] it is 0.005 µM; for `CNC(=O)Nc1ccc(Oc2cccc(NC(=O)N3CCN(c4ccc(F)cc4)C3=O)c2)cn1` [Cpd 16] it is 0.002 µM.
On the same count and under the same terms, the figure for `O=C(NCCN1CCCC1)Nc1ccc(Oc2cccc(NC(=O)N3CCN(c4ccc(F)cc4)C3=O)c2)cn1` [Cpd 17] is 0.004 µM.
